In US6087121A, “Chemiluminescent detection of heme proteins in biological samples” (Mayo Foundation for Medical Education and Research, priority 1999, dated 2000):

Legend:
Hb [1] = assay: S/N ratios of different chemiluminescent substrates with Hb; assay type: biochemical, human; conditions: signal integrated over first five seconds
Description: (§1) Centricon ultrafiltration filters were obtained from Amicon (Daven, Mass.). Polystyrene tubes (5.0 mL volume, 75×12 mm) used for the assay were manufactured by Sarstedt (Arlington Heights, Ill.). The chemiluminescent substrate, 7-dimethylamino-naphthalene-1,2-dicarbonic acid-hydrazide (7-DNH) was purchased from Boehringer Mannheim (Indianapolis, Ind.). PS-1 acridan substrate (solution A and solution B) was obtained from Lumigen Inc. (Southfield, Mich.). […] Tween-20 and Sodium Chloride were purchased from Fisher Scientific (Fair Lawn, N.J.). General laboratory chemicals such as, boric acid, sodium acetate, Trizma base, HEPES, hydrogen peroxide (H2 O2) solution (30.0%), human hemoglobin, catalase, 6-amino-2,3-dihydro-1,4-phthallazinedione (4-aminophthalhydrazide), N-(4-Aminobutyl)-N-ethyl-isoluminol, Triton X-100, (3-[3-cholamidopropyl)dimethylammonio]-1-propanesulfonate) (CHAPS), hydrogen disulfite, methimazole, ofloxacin, ascorbic acid, ammonium chloride, EDTA, Hb, bilirubin, and lactoperoxidase (LPO) were purchased from Sigma Chemical Company (St. Louis, Mo.). Human heart myoglobin and myeloperoxidase were obtained from Calbiochem (La Jolla, Calif.) Thyroid peroxidase (TPO) was purchased from O.E.M. Concepts, Inc. (Toms River, N.J.). Eosinophil peroxidase was provided by Dr. Greipp (Mayo Clinic). Fresh EDTA anticoagulated blood was collected from donors showing no signs of sickness and washed with physiological saline to isolate RBC.
(§2) Fresh urine specimens were obtained in routine commercial collection vessels. The specimens were, either, analyzed immediately or stored at 4° C. until analysis. The urine samples were prepared for analysis by adding CTAC to produce a 0.1% solution, unless otherwise noted, in order to lyse the erythrocytes, thereby releasing hemoglobin. The assays were performed in a 75×12 mm polystyrene tube. The assay solutions were prepared by adding to each tube 294 μL of high ionic strength buffer, 5.0 μL of the prepared urine samples or standards, and […] of substrate (0.4 mM solution of 7-DNH), unless otherwise noted. […] The standard curve was obtained by plotting chemiluminescence emission in Relative Light Units (RLU) versus Hb concentration (μg/mL) or number of RBCs (#RBC/high power field (hpf)). Cell counts were determined with the Yellow Iris® instrument and confirmed by a manual hemocytometer count.
(§3) The substrate (7-DNH) and the ultrafiltered urine were prepared as described above. The kinetics of chemiluminescence was determined by monitoring the chemiluminescence signal over a 20 second time period following addition of the substrate (7-DNH) to ultrafiltered urine. Measurements were performed either in the presence or absence of Hb. Experiments performed in the absence of Hb provide background measurements in relative light units (RLU).

Mb = assay: S/N ratios of different chemiluminescent substrates with Mb; assay type: biochemical, human; conditions: signal integrated over first five seconds
Description: as §1, §2
as §3, with “Experiments performed in the absence of Hb provide background measurements in relative light units (RLU).” left out

Hb [2] = assay: Effects of detergents on chemiluminescence emission in Hb assay; assay type: biochemical, human
Description: Increasing concentrations of Hb were assayed with equal concentrations of different detergents to assess the effectiveness of the detergents at enhancing chemiluminescence emission. The effectiveness of the detergents was also compared at different time periods and varying concentrations. The ultrafiltered urine was assumed to contain neither Hb nor Mb and was used as the blank to assess background chemiluminescence emission with the substrate.

Hb [3] = assay: Interference studies in Hb assay (7-DNH chemiluminescence); assay type: biochemical, human; conditions: level producing a signal equivalent to 3 RBC per high power field, fixed Hb concentration
Description: Numerous potential interfering substances, which either enhance or quench the signal generated by cyclic hydrazides, were evaluated. The effects of these potentially interfering substances on light emission was investigated at varying concentrations of the interfering composition. Assays were performed using serial dilutions of the potential interfering compositions in ultrafiltered urine at a fixed concentration of Hb. Comparisons of chemiluminescence emission were made between a reference solution (Hb in ultrafiltered urine) without added interfering compositions and solutions with added interferant.
Generally, the value of 3 RBC per high power field is the normal cutoff point.
Bilirubin and uric acid were examined as a possible negative interfering compositions because of their chemical structure which may quench energy emitted.

MPO = target: T1, MPO (Homo sapiens, UniProt P05164); assay: Effects of potential interfering substances in WBC (MPO, PS-1) assay; assay type: biochemical
T1 sequence (P05164 49-745): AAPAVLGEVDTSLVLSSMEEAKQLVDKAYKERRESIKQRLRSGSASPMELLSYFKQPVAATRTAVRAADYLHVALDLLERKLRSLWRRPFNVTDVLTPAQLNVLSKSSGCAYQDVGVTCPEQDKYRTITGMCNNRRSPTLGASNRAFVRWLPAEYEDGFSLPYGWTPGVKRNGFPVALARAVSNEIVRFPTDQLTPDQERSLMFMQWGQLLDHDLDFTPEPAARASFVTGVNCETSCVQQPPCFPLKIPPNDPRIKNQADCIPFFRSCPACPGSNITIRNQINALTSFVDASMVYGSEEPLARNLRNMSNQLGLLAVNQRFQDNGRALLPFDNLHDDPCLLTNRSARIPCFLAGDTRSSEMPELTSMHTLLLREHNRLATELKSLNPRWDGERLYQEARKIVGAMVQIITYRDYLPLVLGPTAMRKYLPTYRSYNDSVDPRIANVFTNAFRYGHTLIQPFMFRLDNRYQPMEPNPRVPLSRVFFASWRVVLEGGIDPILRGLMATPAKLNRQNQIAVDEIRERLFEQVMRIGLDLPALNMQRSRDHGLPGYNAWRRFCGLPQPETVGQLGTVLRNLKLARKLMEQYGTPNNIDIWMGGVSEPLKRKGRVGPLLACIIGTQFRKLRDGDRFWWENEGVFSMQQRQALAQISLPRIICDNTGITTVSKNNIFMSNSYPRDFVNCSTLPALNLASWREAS
Description: Urine samples were diluted 1:4 into distilled water to minimize inhibitory effects observed with hyperosmolal urines. Two μL of diluted urine were added to 12×75 mm polystyrene test tube containing 50 μL of the PS-1 solution. The tubes were incubated at 37° C. for 5 minutes. MPO activity was determined by chemiluminescence emission using a Turner TD-20e luminometer maintained at 37° C. Leukocyte counting was performed manually by using a hemacytometer chamber (Kova Glasstic slide, Hycor, Irvine, Calif.) on each urine sample to determine the number of cells/mL.
Several possible interfering substances were added to urine and tested for inhibitory effects. Several common medications were also tested for potential inhibitory effects. […] Hb at concentrations of >10 μg/mL and Mb at concentrations >2 μg/mL were detected by the PS-1 substrate as the chemiluminescence emission was above the normal urine background. Samples grossly populated with bacteria caused slight inhibition of the MPO activity. Urine samples may contain many epithelial cells, casts, crystals, and numerous artifacts but none of these appear to interfere with the chemiluminescence emission from MPO.

[4] = Activity of hemoglobin and myoglobin (oxidation states of iron, standard curves) with 7-DNH; assay type: biochemical
Description: The effect of the oxidation state of the heme iron on chemiluminescence emission was evaluated. Equal concentrations of hemoglobin and myoglobin were used. Standard solutions of Hb and Mb at varying concentrations were assayed to evaluate their behavior in the reaction.
With the addition of dithionite to the lysing agent, all of the iron in hemoglobin is immediately converted to the ferrous oxidation which subsequently reacts with H2 O2 and the substrate to form product. OxyHb and oxyMb […] were made by reducing methemoglobin/metmyoglobin with sodium dithionite and then oxygenating each protein by subsequent passage through a Sephadex column. The oxidation of oxyHb/oxyMb to the ferry (Fe^+4) oxidation state was achieved by adding an excess of H2 O2 to the protein solutions.

CCN(CCCCN)c1ccc2c(=O)[nH][nH]c(=O)c2c1 [ABEI, N-(4-Aminobutyl)-N-ethyl-isoluminol]
S/N for Hb (Hb [1]): 3
S/N for Mb (Mb): 6

CCCCCCCCCCCCCCCC[N+](C)(C)C.[Cl-] [CTAC, cetyltrimethyl-ammonium chloride]
enhancement of chemiluminescence signal (Hb [2]; 7-DNH, various Hb concentrations): highest chemiluminescence signal
optimal concentration for enhancement of signal (Hb [2]; dose-dependent enhancement, FIG. 4B): 0.1%

Nc1ccc2c(=O)[nH][nH]c(=O)c2c1 [Isoluminol, 6-amino-2,3-dihydro-1,4-phthallazinedione]
S/N for Hb (Hb [1]): 3
S/N for Mb (Mb): 5

Nc1cccc2c(=O)[nH][nH]c(=O)c12 [Luminol]
S/N for Hb (Hb [1]): 89
S/N for Mb (Mb): 73

B1: Myoglobin: Human heart myoglobin obtained from Calbiochem (protein, UniProt P02144 2-154, looked up)
Myoglobin: GLSDGEWQLVLNVWGKVEADIPGHGQEVLIRLFKGHPETLEKFDKFKHLKSEDEMKASEDLKKHGATVLTALGGILKKKGHHEAEIKPLAQSHATKHKIPVKYLEFISECIIQVLQSKHPGDFGADAQGAMNKALELFRKDMASNYKELGFQG
Level of Interference (Hb [3]): > 3.8 µg/mL
Level of Interference (Hb [3]; listed as Mb): above 4 μg/mL
Level of Interference (Hb [3]; listed as myoglobin): approximately 4 μg/mL
interference with PS-1 assay (MPO; Mb <2 μg/mL): did not interfere
Interference (MPO; level giving signal equal to 5 WBC/high power field, highest tested: hemoglobin 250, myoglobin 200 μg/mL): > 2 µg/mL
reactivity of Mb relative to Hb (fold less reactive) ([4]; alternative source of Mb, 7-DNH): about 30 -fold
activity compared to Hb ([4]; up to 4 μg/mL, FIG. 7): very little activity
